Results reported in article PMC7221760, “Structural and Functional Characterization of NadR from Lactococcus lactis” (Molecules, 2020).
Values belong to the molecule of their own block, whether it stands above or below them.

Key:
NadRLl [1] = target: T1, NadRLl (Lactococcus lactis, UniProt Q9CE60); assay: LDH-coupled NADH absorbance at […] nm (NMN to NAD); format: biochemical; details: substrate inhibition; 10 mM Mg-ATP; 100 mM Tris/HCl pH 7.5; 25 °C
T1 construct: gene nadR; NMNAT domain residues 8-177, RNK domain residues 178-379
T1 sequence (Q9CE60 1-379): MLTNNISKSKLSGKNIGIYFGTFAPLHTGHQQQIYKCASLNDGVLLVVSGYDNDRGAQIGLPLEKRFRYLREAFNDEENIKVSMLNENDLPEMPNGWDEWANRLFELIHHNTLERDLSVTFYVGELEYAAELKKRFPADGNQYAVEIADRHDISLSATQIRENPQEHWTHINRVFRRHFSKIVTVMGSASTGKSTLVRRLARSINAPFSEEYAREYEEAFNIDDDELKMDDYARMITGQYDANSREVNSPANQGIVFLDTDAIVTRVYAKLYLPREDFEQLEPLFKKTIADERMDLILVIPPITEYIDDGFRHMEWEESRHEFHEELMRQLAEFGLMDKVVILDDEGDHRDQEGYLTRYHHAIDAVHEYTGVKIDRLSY

NadRLl [2] = target: T1, NadRLl; assay: X-ray crystal structure, […] Å; format: binding; details: 5 mM NMN, pH 6.5; site between the two domains, not the active sites
NadRLl [3] = target: T1, NadRLl; assay: X-ray crystal structure, […] Å; format: binding; details: co-crystallised with 5 mM NAD and 5 mM Mg-AMP-PNP, not the active sites
NadRLl [4] = target: T1, NadRLl; assay: isothermal titration calorimetry; format: binding; details: read-out: Dissociation Constant-KD
From the text: isothermal titration calorimetry on NadRLl

NadRLl [5] = target: T1, NadRLl; assay: LDH-coupled NADH absorbance at […] nm (NR to NAD); format: biochemical; details: substrate inhibition; 10 mM Mg-ATP; 100 mM Tris/HCl pH 7.5; 25 °C
NadRLl [6] = target: T1, NadRLl; assay: X-ray crystal structure, […] Å; format: binding; details: 5 mM NR, pH 6.5; site between the two domains, not the active sites
purified protein [7] = substrate: NC(=O)c1ccc[n+]([C@@H]2O[C@H](CO)[C@@H](O)[C@H]2O)c1; assay: purified protein; format: biochemical, Lactococcus lactis; details: 10 mM Mg-ATP, 100 mM Tris/HCl pH 7.5, 25 °C, substrate-inhibition model
purified protein [8] = substrate: NC(=O)c1ccc[n+]([C@@H]2O[C@H](COP(=O)([O-])O)[C@@H](O)[C@H]2O)c1; assay: purified protein; format: biochemical, Lactococcus lactis; details: 10 mM Mg-ATP, 100 mM Tris/HCl pH 7.5, 25 °C, substrate-inhibition model
purified protein [9] = substrate: Nc1ncnc2c1ncn2[C@@H]1O[C@H](COP(=O)(O)OP(=O)(O)OP(=O)(O)O)[C@@H](O)[C@H]1O; assay: purified protein; format: biochemical, Lactococcus lactis; details: 1 mM NMN, 100 mM Tris/HCl pH 7.5, 25 °C, Mg-ATP, Hill coefficient 2.2 ± 0.3

Molecule: NC(=O)c1ccc[n+]([C@@H]2O[C@H](COP(=O)(O)OP(=O)(O)OC[C@H]3O[C@@H](n4cnc5c(N)ncnc54)[C@H](O)[C@@H]3O)[C@@H](O)[C@H]2O)c1 [NAD]
X-ray crystal structure, 3.00 Å (NadRLl [3]; mixture with AMP-PNP at site between the two domains): we observed a mixture of NAD and AMP-PNP bound at this location

Molecule: Nc1ncnc2c1ncn2[C@@H]1O[C@H](COP(=O)(O)OP(=O)(O)NP(=O)(O)O)[C@@H](O)[C@H]1O [AMP-PNP]
X-ray crystal structure, 3.00 Å (NadRLl [3]; mixture with NAD at site between the two domains): we observed a mixture of NAD and AMP-PNP bound at this location | Kd (NadRLl [4]): 13 ± 1 µM

B1: NadRLl (Lactococcus lactis subsp. lactis Il1403) (protein)
chain: MLTNNISKSKLSGKNIGIYFGTFAPLHTGHQQQIYKCASLNDGVLLVVSGYDNDRGAQIGLPLEKRFRYLREAFNDEENIKVSMLNENDLPEMPNGWDEWANRLFELIHHNTLERDLSVTFYVGELEYAAELKKRFPADGNQYAVEIADRHDISLSATQIRENPQEHWTHINRVFRRHFSKIVTVMGSASTGKSTLVRRLARSINAPFSEEYAREYEEAFNIDDDELKMDDYARMITGQYDANSREVNSPANQGIVFLDTDAIVTRVYAKLYLPREDFEQLEPLFKKTIADERMDLILVIPPITEYIDDGFRHMEWEESRHEFHEELMRQLAEFGLMDKVVILDDEGDHRDQEGYLTRYHHAIDAVHEYTGVKIDRLSY
notes: NMNAT domain residues 8-177, RNK domain residues 178-379
Km (purified protein [7]): 600 ± 100 µM | Vmax (purified protein [7]): 0.4 µmol/min/mg | Km (purified protein [8]): 500 ± 100 µM | Vmax (purified protein [8]): 1.5 µmol/min/mg | K0.5 (purified protein [9]): 5.2 ± 0.6 mM | Vmax (purified protein [9]): 1.2 µmol/min/mg

Now from value to molecule, other results behind:

Ki (NadRLl [1]): 25400 ± 10800 µM
Molecule: NC(=O)c1ccc[n+]([C@@H]2O[C@H](COP(=O)([O-])O)[C@@H](O)[C@H]2O)c1 [nicotinamide mononucleotide]
X-ray crystal structure, 2.70 Å (NadRLl [2]): we obtained structures in the presence of NMN and NR, which both have bound substrates

Ki (NadRLl [5]): 31400 ± 8100 µM
Molecule: NC(=O)c1ccc[n+]([C@@H]2O[C@H](CO)[C@@H](O)[C@H]2O)c1 [nicotinamide riboside]
X-ray crystal structure, 2.30 Å (NadRLl [6]): we obtained structures in the presence of NMN and NR, which both have bound substrates

Kd (NadRLl [4]): 63 ± 1 µM
Molecule: Nc1ncnc2c1ncn2[C@@H]1O[C@H](COP(=O)(O)OP(=O)(O)OP(=O)(O)O)[C@@H](O)[C@H]1O [ATP]
